Measurements reported in PMC6009956, “Design, synthesis and biological activity of N^4-phenylsubstituted-7H-pyrrolo[2,3-d]pyrimidin-4-amines as dual inhibitors of aurora kinase A and epidermal growth factor receptor kinase” (Journal of Enzyme Inhibition and Medicinal Chemistry, 2017).
Where two headings read alike, the source gives them in different places.

How the values were obtained:
EGFR = EGFR (Homo sapiens, UniProt P00533); assay: DiscoverX competition binding assay, EGFR; set-up: purchased DiscoverX Corporation (assay run externally by the vendor); details: read-out: Binding constant (Kd) EGFR
Description: (§1) The assay was performed externally at DiscoverX Corporation using a competition binding assay that quantitatively measures the ability of a compound to compete with an immobilised, active-site directed ligand[24]. The assay is performed by combining three components: DNA-tagged kinase, immobilised ligand and a test compound. The ability of the test compound to compete with the immobilised ligand was measured via quantitative PCR of the DNA tag. An 11-point 3-fold serial dilution of each test compound was prepared in 100% of DMSO at 100× final test concentration and subsequently diluted to 1× in the assay (final DMSO concentration = 1%). […] Binding constants (Kd) were calculated with a standard dose-response curve using the Hill equation.
(§2) Binding Affinities for EGFR, AURKA and AURKB
(§3) The assay was performed externally at DiscoverX Corporation using a competition binding assay that quantitatively measures the ability of a compound to compete with an immobilized, active-site directed ligand for target kinases AURKA, AURKB and EGFR.23 The assay is performed by combining three components: DNA-tagged kinase; immobilized ligand; and a test compound. The ability of the test compound to compete with the immobilized ligand was measured via quantitative PCR of the DNA tag. […] Compound Kds were determined using a compound top […]

AURKA = biological target: T1, AURKA (Homo sapiens, UniProt O14965); assay: DiscoverX competition binding assay, AURKA; details: read-out: Binding constant (Kd) AURKA
T1 construct: purchased DiscoverX Corporation (assay run externally by the vendor)
T1 sequence (O14965 1-403): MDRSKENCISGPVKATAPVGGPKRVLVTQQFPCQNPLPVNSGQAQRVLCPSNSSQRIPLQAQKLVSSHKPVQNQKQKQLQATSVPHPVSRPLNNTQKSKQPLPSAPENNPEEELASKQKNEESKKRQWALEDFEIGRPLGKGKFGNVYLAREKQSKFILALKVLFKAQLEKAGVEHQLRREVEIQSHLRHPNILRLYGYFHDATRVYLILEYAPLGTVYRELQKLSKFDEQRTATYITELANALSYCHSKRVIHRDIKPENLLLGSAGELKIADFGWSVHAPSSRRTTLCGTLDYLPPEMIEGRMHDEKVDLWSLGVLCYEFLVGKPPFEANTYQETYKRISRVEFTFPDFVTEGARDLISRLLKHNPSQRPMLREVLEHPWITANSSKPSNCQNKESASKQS
Description: as §1, §2, §3

[1] = tested on: Phosphorylated histone H3 (p-HH3) in BHY and FADU SCCHN cell lines; assay: Western blot of p-HH3 in BHY and FADU cells; format: cell-based; details: 100 μM
Description: Protein extracts (50 μg per lane) were electrophoretically separated on SDS-PAGE gels, transferred to membranes (Protran, Schleicher & Schuell, Dassel, Germany) and blotted with specific antibodies (actin, aurora A, aurora B: all from Sigma, Munich, Germany; S10-HH3: Millipore, Schwalbach, Germany; EGFR: Santa Cruz, Heidelberg, Germany; pEGFR: Invitrogen, Darmstadt, Germany; pAKT, pERK: both from New England Biolabs, Frankfurt, Germany).
Figure 4. Effects of compound 2 on EGFR and aurora kinases in growing SCCHN cell lines (A) Western blot analysis of EGFR (pEGFR, pERK, p-AKT) and aurora A (p-HH3) downstream target proteins following incubation with 100 μM compound 2 for the indicated time points in BHY and FADU SCCHN cell lines. (B) BHY and CAL cell lines treated for the indicated time points with 200 nM cetuximab. Western blot analysis of EGFR downstream targets. (long exposure and short exposure). […] Western blot analysis of p-HH3 at the indicated time points. Asterisk (*) represents unspecific band.

aurora A kinase (AURKA) = biological target: T2, aurora A kinase (AURKA) (Homo sapiens, UniProt O14965); assay: ADP-Glo kinase assay, Aurora A; format: biochemical
T2 construct: purchased BPS Bioscience (assay run externally by the vendor)
T2 sequence (O14965 1-403): T1 sequence (O14965 1-403)

BHY cells = assay: Cell killing, PI staining and FACS, BHY; format: cell-based
Description: FADU, BHY, SAS and CAL cell lines were obtained from ATCC-LGC and were cultured in DMEM (Invitrogen, Germany) supplemented with 10% of heat activated bovine serum (FBS, PAA, Germany), 1% of glutamine, 1% of penicillin-streptomycin (Invitrogen, Germany). To measure proliferation, SCCHN cells were split, reseeded (5 × 10^5 in 25 cm^2 flasks) and counted at the indicated time points. Cells were then replated at the initial density. The fold increase in cell number was calculated, all given results are based on triplicate experiments. To assess cell death 5 × 10^5 cells were stained with propidium iodide (PI, Sigma, Germany). Following incubation, cells were washed, resuspended in PBS, and analysed by flow cytometry. The fraction of PI-positive cells is reported as dead cell fraction.
Figure 3. […] Cells were incubated with compound 2 for 48 h and then subjected to PI staining and FACS analysis. PI-positive cell fraction as measure of cell death is reported. (B) Four SCCHN cell lines were incubated with 100 μM of compound 2 and counted on the indicated days. Experiments in triplicates, fold growth shown. (C) EGFR expression of SCCHN cell lines. EGFR high and low as detected by western blot analysis (D) The SCCHN cell lines were incubated with 100 μM of compound 2 for 72 h. Percent PI positive cells are given. Experiments in triplicates.

AURKB = biological target: T3, AURKB (Homo sapiens, UniProt Q96GD4); assay: DiscoverX competition binding assay, AURKB; details: read-out: Binding constant (Kd) AURKB
T3 construct: purchased DiscoverX Corporation (assay run externally by the vendor)
Description: as §1, §2, §3

T3 sequence (Q96GD4 whole entry): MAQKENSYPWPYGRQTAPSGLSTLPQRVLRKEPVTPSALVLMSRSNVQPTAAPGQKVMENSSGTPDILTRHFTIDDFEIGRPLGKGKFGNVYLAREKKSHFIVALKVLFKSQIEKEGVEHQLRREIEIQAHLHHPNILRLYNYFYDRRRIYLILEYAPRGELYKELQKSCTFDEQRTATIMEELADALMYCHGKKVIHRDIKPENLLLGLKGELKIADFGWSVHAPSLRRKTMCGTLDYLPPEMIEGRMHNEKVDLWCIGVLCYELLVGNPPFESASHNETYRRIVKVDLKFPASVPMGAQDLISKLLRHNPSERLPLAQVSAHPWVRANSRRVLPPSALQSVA
EGFR, sequence (P00533 25-1210): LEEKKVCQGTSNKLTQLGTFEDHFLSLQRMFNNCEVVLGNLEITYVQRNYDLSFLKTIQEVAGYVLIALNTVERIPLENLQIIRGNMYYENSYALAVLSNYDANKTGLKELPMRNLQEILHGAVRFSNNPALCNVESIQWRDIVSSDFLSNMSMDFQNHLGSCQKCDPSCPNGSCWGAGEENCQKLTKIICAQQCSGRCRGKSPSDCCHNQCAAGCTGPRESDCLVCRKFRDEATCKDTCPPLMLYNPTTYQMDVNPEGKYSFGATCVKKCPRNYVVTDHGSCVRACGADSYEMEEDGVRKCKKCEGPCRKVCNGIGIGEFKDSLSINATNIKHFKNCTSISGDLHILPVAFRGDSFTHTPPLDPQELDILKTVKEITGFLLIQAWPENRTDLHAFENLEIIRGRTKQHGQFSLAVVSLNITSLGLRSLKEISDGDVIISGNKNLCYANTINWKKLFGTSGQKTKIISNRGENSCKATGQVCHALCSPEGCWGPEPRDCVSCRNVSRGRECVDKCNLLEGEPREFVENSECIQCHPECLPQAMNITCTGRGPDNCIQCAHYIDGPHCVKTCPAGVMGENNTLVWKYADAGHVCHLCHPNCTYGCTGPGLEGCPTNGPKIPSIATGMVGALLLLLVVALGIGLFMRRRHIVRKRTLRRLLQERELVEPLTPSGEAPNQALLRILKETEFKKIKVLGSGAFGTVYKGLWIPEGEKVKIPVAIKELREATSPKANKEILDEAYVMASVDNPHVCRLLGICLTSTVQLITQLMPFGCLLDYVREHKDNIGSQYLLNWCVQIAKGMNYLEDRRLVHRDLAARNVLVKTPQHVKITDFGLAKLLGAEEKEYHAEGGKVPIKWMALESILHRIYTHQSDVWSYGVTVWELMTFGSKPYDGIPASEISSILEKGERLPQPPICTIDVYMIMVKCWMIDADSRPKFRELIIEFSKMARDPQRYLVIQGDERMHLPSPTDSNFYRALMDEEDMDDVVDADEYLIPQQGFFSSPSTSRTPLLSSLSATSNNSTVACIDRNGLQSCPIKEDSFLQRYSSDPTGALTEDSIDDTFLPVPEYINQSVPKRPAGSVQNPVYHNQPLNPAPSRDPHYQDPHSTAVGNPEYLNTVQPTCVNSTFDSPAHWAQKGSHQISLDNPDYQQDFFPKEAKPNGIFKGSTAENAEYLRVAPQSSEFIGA

Kd (EGFR): 0.067 µM
Kd (AURKA): 3.4 µM
IC50 (aurora A kinase (AURKA); 10 µM ATP, triplicate, read-out: AURKA IC50 ± SD): 1.99 ± 0.05 µM
IC50 (aurora A kinase (AURKA); 10 µM ATP/0.2 mg/ml Kemptide, read-out: Aurora A IC50 (dose-response curve, supplement)): 2 µM
Aurora A % Activity Set1 (aurora A kinase (AURKA); Log[nM] 0): 107%
Aurora A % Activity Set2 (aurora A kinase (AURKA); Log[nM] 0): 94%
Aurora A % Activity Set3 (aurora A kinase (AURKA); Log[nM] 0): 94%
Aurora A % Activity Set1 (aurora A kinase (AURKA); Log[nM] 1.0): 109%
Aurora A % Activity Set2 (aurora A kinase (AURKA); Log[nM] 1.0): 97%
Aurora A % Activity Set3 (aurora A kinase (AURKA); Log[nM] 1.0): 96%
Aurora A % Activity Set1 (aurora A kinase (AURKA); Log[nM] 1.5): 109%
Aurora A % Activity Set2 (aurora A kinase (AURKA); Log[nM] 1.5): 96%
Aurora A % Activity Set3 (aurora A kinase (AURKA); Log[nM] 1.5): 101%
Aurora A % Activity Set1 (aurora A kinase (AURKA); Log[nM] 2.0): 102%
Aurora A % Activity Set2 (aurora A kinase (AURKA); Log[nM] 2.0): 97%
Aurora A % Activity Set3 (aurora A kinase (AURKA); Log[nM] 2.0): 105%
Aurora A % Activity Set1 (aurora A kinase (AURKA); Log[nM] 2.5): 94%
Aurora A % Activity Set2 (aurora A kinase (AURKA); Log[nM] 2.5): 88%
Aurora A % Activity Set3 (aurora A kinase (AURKA); Log[nM] 2.5): 95%
Aurora A % Activity Set1 (aurora A kinase (AURKA); Log[nM] 3.0): 70%
Aurora A % Activity Set2 (aurora A kinase (AURKA); Log[nM] 3.0): 66%
Aurora A % Activity Set3 (aurora A kinase (AURKA); Log[nM] 3.0): 69%
Aurora A % Activity Set1 (aurora A kinase (AURKA); Log[nM] 3.5): 35%
Aurora A % Activity Set2 (aurora A kinase (AURKA); Log[nM] 3.5): 34%
Aurora A % Activity Set3 (aurora A kinase (AURKA); Log[nM] 3.5): 34%
Aurora A % Activity Set1 (aurora A kinase (AURKA); Log[nM] 4.0): 16%
Aurora A % Activity Set2 (aurora A kinase (AURKA); Log[nM] 4.0): 14%
Aurora A % Activity Set3 (aurora A kinase (AURKA); Log[nM] 4.0): 14%
Aurora A % Activity Set1 (aurora A kinase (AURKA); Log[nM] 4.5): 6%
Aurora A % Activity Set2 (aurora A kinase (AURKA); Log[nM] 4.5): 5%
Aurora A % Activity Set3 (aurora A kinase (AURKA); Log[nM] 4.5): 5%
Aurora A % Activity Set1 (aurora A kinase (AURKA); Log[nM] 5.0): 5%
Aurora A % Activity Set2 (aurora A kinase (AURKA); Log[nM] 5.0): 5%
Aurora A % Activity Set3 (aurora A kinase (AURKA); Log[nM] 5.0): 5%
Kd (AURKB): 4.8 µM
SMILES: Brc1cccc(Nc2ncnc3[nH]ccc23)c1 [Compound 2, N^4-(3-bromophenyl)-7H-pyrrolo[2,3-d]pyrimidine-4-amine]
Effect on histone p-HH3 [1]: Modest effects
Cell killing (PI positive cells) (BHY cells; 100 µM, 72 h): efficient cell killing
IC50 (BHY cells; 48 h, read-out: IC50 cellular killing (PI-positive fraction)): 150 µM
